# Assays:
# yeast = experiment: Yeast count of spent brewer's / wet distiller's grains stored at ambient temperature; assay type: cell-based
# Protocol: (§1) Samples of Portion 1 (“AR”), Portion 3 (“SO”) and Portion 5 (“SH”) were then delivered to a microbiological testing facility about 15 kilometres from the treatment laboratory. Each was tested for initial total microbial, yeast and mould counts, respectively.
# (§2) Separate untreated samples were similarly stored under insect-proof screens at ambient temperature for seven days (as shown in Tables 1 and 2). During the trial period the ambient temperature ranged from 11 to 33 degrees C.
# (§3) The free moisture content on the initial spent brewer's grains was determined to be 78.1% m/m. After exposure to the environment for seven days, all of the samples were tested at a South African National Accreditation System (SANAS) approved microbiological testing facility. Each was tested for total micro-organism, yeast and mould counts to determine the affect of the various treatments. A similar procedure to that described in K. A. Rosentrater et al, Food Bioprocess Technol (2008) was used for the microbiological evaluation.
# (§4) At the laboratory, the samples were thoroughly mixed and initially split into a first portion (Portion 1) and a second portion (Portion 2). Portion 1 was left untreated. A sample of Portion 1, was delivered immediately to a microbiological testing facility about 15 kilometres away from the treatment laboratory and was tested for initial total microbial, yeast and mould counts, respectively. No water removal prior to treatment was done in this experiment as was the case in Example 8 wherein a similar wet material was partially dewatered by pressing and the residue treated with 10% (w/w/) calcium oxide.
# (§5) Samples from Portion 2 were subjected to treatment with varying amounts of a powdered, commercially-available calcium oxide containing approximately 94% calcium oxide (CaO) as shown in Table 32. The treatments varied from 2.5 to 10% (w/w) calcium oxide addition. The samples were stored in batches (according to the calcium oxide treatment) under insect-proof screens at ambient temperature for fifty six days. Separate untreated samples were similarly stored under insect-proof screens at ambient temperature for a total of 56 days. During the trial period the ambient temperature ranged from 10 to 30 degrees C. As this period was the southern hemisphere spring/early summer, the humidity as well as ambient temperatures varied widely.
# as §3, with “79.4%” for “78.1%”
# (§6) Samples from each treatment were drawn every seven days. No further calcium oxide treatment or agitation took place after the initial mix. In each case the entire sample was isolated and delivered to the microbiological testing facility.
# (§7) The calcium oxide treatment trial described in Example 9 wherein wet distiller's grains were treated with 2.5%, 5% and 10.0% calcium oxide, respectively, versus untreated material was repeated using lower doses of calcium oxide. In this trial the same source of wet distiller's grains (again with now partial water removal prior to treatment) was treated. Also, the same protocol as described in Example 9 was applied, but at lower doses of calcium oxide i.e. 0.5%, 1.0%, 1.5%, 2.0% and 2.5%, respectively, versus untreated material.
# (§8) In this trial the same source of wet distiller's grains (again with now partial water removal prior to treatment) was treated. Also, the same protocol as described in Example 9 was applied.
# mould = experiment: Mould count of spent brewer's / wet distiller's grains stored at ambient temperature; assay type: cell-based
# Protocol: as §1, §2, §3, §4
# as §5, with “The treatments varied from 2.5 to 10% (w/w) calcium oxide addition.” left out
# as §3, with “79.4%” for “78.1%”
# as §6, §7, §8
# [1] = pH of suspensions of grain samples in distilled water or PBS; conditions: 1% (w/w) in distilled water
# Protocol: The untreated sample (A) was compared visually against the corresponding quicklime-treated sample (B).
# On Day 7, 10 g amounts of each sample were suspended in either 90 ml PBS or 90 ml sterile distilled water and shaken for 10 minutes. The pH of each suspension was then measured and compared.
# On Day 9, 10 g of each sample was suspended in 90 ml PBS and shaken for 10 minutes. The pH was measured.
# [2] = 10% Ca-DGO (w/w) granules, week 1
# [3] = 10% Ca-DGO (w/w) granules, week 2
# [4] = 10% Ca-DGO (w/w) granules, week 3
# [5] = 10% Ca-DGO (w/w) granules, week 4
# [6] = 10% Ca-DGO (w/w) granules, week 5
# [7] = 10% Ca-DGO (w/w) powder, week 1
# [8] = 10% Ca-DGO (w/w) powder, week 2
# [9] = 10% Ca-DGO (w/w) powder, week 3
# [10] = 10% Ca-DGO (w/w) powder, week 4
# [11] = 10% Ca-DGO (w/w) powder, week 5
# [12] = 20% Ca-DGO (w/w) powder, week 1
# [13] = 20% Ca-DGO (w/w) powder, week 2
# [14] = 20% Ca-DGO (w/w) powder, week 3
# [15] = 20% Ca-DGO (w/w) powder, week 4
# [16] = 20% Ca-DGO (w/w) powder, week 5
# [17] = 40% Ca-DGO (w/w) powder, week 1
# [18] = 40% Ca-DGO (w/w) powder, week 2
# [19] = 40% Ca-DGO (w/w) powder, week 3
# [20] = 40% Ca-DGO (w/w) powder, week 4
# [21] = 40% Ca-DGO (w/w) powder, week 5
smiles,measurement,setting,value
[Ca+2].[OH-].[OH-] [(CaOH)2 powder],Yeast Count,"yeast; dose 3.3% (w/w), week 8",<10 cfu/gram
same,Yeast Count,"yeast; dose 6.6% (w/w), week 2",<10 cfu/gram
same,Mould Count,"mould; dose 3.3% (w/w), week 0",<10 cfu/gram
same,Mould Count,"mould; dose 3.3% (w/w), week 1",<10 cfu/gram
same,Mould Count,"mould; dose 3.3% (w/w), week 2",<10 cfu/gram
same,Mould Count,"mould; dose 3.3% (w/w), week 3",<10 cfu/gram
same,Mould Count,"mould; dose 3.3% (w/w), week 4",<10 cfu/gram
same,Mould Count,"mould; dose 3.3% (w/w), week 5",<10 cfu/gram
same,Mould Count,"mould; dose 3.3% (w/w), week 6",<10 cfu/gram
same,Mould Count,"mould; dose 3.3% (w/w), week 7",<10 cfu/gram
same,Mould Count,"mould; dose 3.3% (w/w), week 8",<10 cfu/gram
same,Mould Count,"mould; dose 6.6% (w/w), week 0",<10 cfu/gram
same,Mould Count,"mould; dose 6.6% (w/w), week 1",<10 cfu/gram
same,Mould Count,"mould; dose 6.6% (w/w), week 2",<10 cfu/gram
same,Mould Count,"mould; dose 6.6% (w/w), week 3",<10 cfu/gram
same,Mould Count,"mould; dose 6.6% (w/w), week 4",<10 cfu/gram
same,Mould Count,"mould; dose 6.6% (w/w), week 5",<10 cfu/gram
same,Mould Count,"mould; dose 6.6% (w/w), week 6",<10 cfu/gram
same,Mould Count,"mould; dose 6.6% (w/w), week 7",<10 cfu/gram
same,Mould Count,"mould; dose 6.6% (w/w), week 8",<10 cfu/gram
same,Mould Count,"mould; dose 6.6% (w/w), week 9",10 cfu/gram
same,pH,"[1]; dose 3.3% (w/w), week 0",11.78
same,pH,"[1]; dose 3.3% (w/w), week 1",11.57
same,pH,"[1]; dose 3.3% (w/w), week 2",8.69
same,pH,"[1]; dose 3.3% (w/w), week 3",9.08
same,pH,"[1]; dose 3.3% (w/w), week 4",8.45
same,pH,"[1]; dose 3.3% (w/w), week 5",7.66
same,pH,"[1]; dose 3.3% (w/w), week 6",9.32
same,pH,"[1]; dose 3.3% (w/w), week 7",7.25
same,pH,"[1]; dose 3.3% (w/w), week 8",9.29
same,pH,"[1]; dose 6.6% (w/w), week 0",12.90
same,pH,"[1]; dose 6.6% (w/w), week 1",12.30
same,pH,"[1]; dose 6.6% (w/w), week 2",11.08
same,pH,"[1]; dose 6.6% (w/w), week 3",11.78
same,pH,"[1]; dose 6.6% (w/w), week 4",9.51
same,pH,"[1]; dose 6.6% (w/w), week 5",7.68
same,pH,"[1]; dose 6.6% (w/w), week 6",10.61
same,pH,"[1]; dose 6.6% (w/w), week 7",7.25
same,pH,"[1]; dose 6.6% (w/w), week 8",9.13
same,pH,"[1]; dose 6.6% (w/w), week 9",8.84
[Ca+2].[O-]CC(O)CO.[O-]CC(O)CO [calcium diglyceroxide],Mould Count,mould; [2],10 cfu/gram
same,Mould Count,mould; [3],<10 cfu/gram
same,Mould Count,mould; [4],<10 cfu/gram
same,Mould Count,mould; [5],<10 cfu/gram
same,Mould Count,mould; [6],<10 cfu/gram
same,Mould Count,mould; [7],<10 cfu/gram
same,Mould Count,mould; [8],<10 cfu/gram
same,Mould Count,mould; [9],<10 cfu/gram
same,Mould Count,mould; [10],310 cfu/gram
same,Mould Count,mould; [11],1020 cfu/gram
same,Mould Count,mould; [12],10 cfu/gram
same,Mould Count,mould; [13],10 cfu/gram
same,Mould Count,mould; [14],10 cfu/gram
same,Mould Count,mould; [15],10 cfu/gram
same,Mould Count,mould; [16],10 cfu/gram
same,Mould Count,mould; [17],10 cfu/gram
same,Mould Count,mould; [18],10 cfu/gram
same,Mould Count,mould; [19],10 cfu/gram
same,Mould Count,mould; [20],10 cfu/gram
same,Mould Count,mould; [21],10 cfu/gram
same,pH,[1]; [2],7.88
same,pH,[1]; [3],7.71
same,pH,[1]; [4],7.44
same,pH,[1]; [5],7.14
same,pH,[1]; [6],8.37
same,pH,[1]; [7],9.43
same,pH,[1]; [8],7.32
same,pH,[1]; [9],7.31
same,pH,[1]; [10],8.01
same,pH,[1]; [11],7.23
same,pH,[1]; [12],11.47
same,pH,[1]; [13],11.16
same,pH,[1]; [14],12.00
same,pH,[1]; [15],11.23
same,pH,[1]; [16],10.83
same,pH,[1]; [17],11.66
same,pH,[1]; [18],11.50
same,pH,[1]; [19],12.30
same,pH,[1]; [20],11.52
same,pH,[1]; [21],11.13
